Data: patent publication US20100210649A1, “PYRIDAZINONES AND FURAN-CONTAINING COMPOUNDS” (Sloan-Kettering Institute for Cancer Research, priority 2006, published 2010)

Tests used:
Format in all cases: cell-based, human
H3255 = assay: Non Small Cell Lung Cancer proliferation assay (Alamar Blue reduction), H3255; conditions: Homo sapiens, NCI-H3255; primary screening; 10 μM compound in 1% DMSO (v/v); read-out: percentage inhibition H3255
Method in brief: (§1)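 Proliferation after 48 h compound exposure (1% DMSO final, 37 °C) was read by Alamar Blue reduction over an additional 48 h, fluorescence at 530 nm excitation/590 nm emission. Dose-response runs seeded 250 cells/well; DMSO-only wells as high control.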

H2030 = assay: Non Small Cell Lung Cancer proliferation assay (Alamar Blue reduction), H2030; conditions: Homo sapiens, NCI-H2030; primary screening; 10 μM compound in 1% DMSO (v/v); read-out: percentage inhibition H2030
Method in brief: as §1

H1650 = assay: Non Small Cell Lung Cancer proliferation assay (Alamar Blue reduction), H1650; conditions: Homo sapiens, NCI-H1650; primary screening; 10 μM compound in 1% DMSO (v/v); read-out: percentage inhibition H1650
Method in brief: as §1

H1975 = assay: Non Small Cell Lung Cancer proliferation assay (Alamar Blue reduction), H1975; conditions: Homo sapiens, NCI-H1975; primary screening; 10 μM compound in 1% DMSO (v/v); read-out: percentage inhibition H1975
Method in brief: as §1

SMILES | inhibition at 10 µM (H3255) [%] | inhibition at 10 µM (H2030) [%] | inhibition at 10 µM (H1650) [%] | inhibition at 10 µM (H1975) [%]
O=c1c2c(cnn1-c1ccccc1)SCCS2 [compound 195988] | -18 | 7 | 13 | -7
O=c1c(SCc2ccccc2)c(N2CCCCC2)cnn1-c1ccccc1 [compound 195989] | -27 | 6 | 21 | 35
O=c1c(Cl)cc(Cl)nn1-c1ccccc1 [compound 196392] | 111 | -13 | 87 | 99
O=c1ccc(Oc2nc(N3CCCCC3)nc(N3CCCCC3)n2)nn1-c1ccccc1 [compound 196618] | -33 | 12 | 3 | -14
O=C(O)c1ccc(-n2ncc(Cl)c(Cl)c2=O)cc1 [compound 197940] | -37 | 2 | 11 | -6
O=C(COc1cnn(-c2ccccc2)c(=O)c1Cl)c1ccccc1 [compound 199759] | 66 | 9 | 16 | 36
O=C(COCCOc1cnn(-c2ccccc2)c(=O)c1Cl)c1ccccc1 [compound 199760] | 6 | 21 | 12 | -22
CCOC(=O)N(CCOc1cnn(-c2ccccc2)c(=O)c1)C(=O)OCC [compound 199761] | 41 | 6 | -7 | -25
CCOC(=O)NCCOc1cnn(-c2ccc(Cl)cc2)c(=O)c1Cl [compound 199764] | 2 | -9 | -11 | -14
NCCOc1cnn(-c2ccccc2Cl)c(=O)c1Cl [compound 200052] | -18 | 12 | -9 | 5
CCOC(=O)NCCOc1cnn(-c2ccccc2)c(=O)c1Cl [compound 201622] | 33 | 4 | 5 | -23
O=c1c(Cl)c(Cl)c(Cl)nn1-c1ccc(Br)cc1 [compound 202245] | 71 | -8 | 48 | 96
COc1cc(Cl)nn(-c2ccccc2)c1=O [compound 206569] | 22 | 7 | -2 | 3
O=c1c(SCc2ccc(Cl)cc2Cl)c(SCc2ccc(Cl)cc2Cl)cnn1-c1ccccc1 [compound 208619] | -19 | -12 | -4 | 1
O=c1c(SCc2ccccc2)c(SCc2ccccc2)cnn1-c1ccccc1 [compound 208693] | 0 | -11 | -6 | -7
COc1cnn(-c2ccc(C)cc2)c(=O)c1SCc1ccccc1 [compound 208694] | -16 | 3 | -21 | -29
O=c1c(SCc2ccccc2Cl)c(SCc2ccccc2Cl)cnn1-c1ccccc1 [compound 208695] | -2 | -11 | -14 | -13
CCCCSc1cnn(-c2ccccc2)c(=O)c1SCc1ccccc1 [compound 208696] | 37 | 4 | -2 | -19
O=c1c(Cl)c(SC(c2ccccc2)c2ccccc2)cnn1-c1ccccc1 [compound 208697] | 31 | 4 | -3 | -16
O=c1c(SCc2ccccc2)c(SCc2ccccc2)cnn1-c1ccc(Br)cc1 [compound 208699] | 19 | 10 | -12 | -22

SMILES | inhibition at 10 µM (H3255) [%] | inhibition at 10 µM (H2030) [%] | inhibition at 10 µM (H1650) [%] | inhibition at 10 µM (H1975) [%]
COc1cnn(-c2ccccc2)c(=O)c1SCc1ccc(Cl)cc1Cl [compound 208701] | 7 | 7 | -4 | -25
O=c1c(SCc2ccccc2)cc(Cl)nn1-c1ccccc1 [compound 208702] | 0 | -15 | 3 | -16
Cc1cccc(-n2ncc(SCc3ccccc3)c(SCc3ccccc3)c2=O)c1 [compound 208703] | 16 | 9 | 2 | -18
O=c1c(SCc2ccc(Cl)cc2)c(SCc2ccccc2)cnn1-c1ccccc1 [compound 208704] | -23 | -15 | -10 | -6
O=c1c(SCc2ccccc2)c(SCc2ccc(Cl)cc2)cnn1-c1ccccc1 [compound 208705] | 0 | 10 | -4 | -20
CC(C)Oc1c(S)cnn(-c2ccccc2)c1=O [compound 213495] | 8 | -5 | 4 | -15
Cc1cc(-n2ccc3c(C#N)c(=O)n(-c4ccccc4)nc3c2=O)[nH]n1 [compound 216994] | -3 | 4 | 1 | 1
O=c1ccc(Cl)nn1-c1ccc(Br)cc1 [compound 222922] | -7 | -30 | -20 | 3
Cc1c(Oc2ccccc2)nnn1-c1cnn(-c2ccccc2)c(=O)c1Br [compound 223337] | 61 | -14 | 13 | 5
O=c1c(Br)c(-n2cc(CO)nn2)cnn1-c1ccccc1 [compound 224256] | 110 | 1 | 103 | 102
Cc1ccc(-n2nc(C#N)c(-c3ccccc3)c(C#N)c2=O)cc1 [compound 224358] | -14 | -2 | -4 | -9
CSc1cnn(-c2ccccc2)c(=O)c1SCc1ccccc1 [compound 224764] | -32 | -10 | 21 | -5
Cc1ccccc1-n1ncc(SCc2ccccc2)c(Cl)c1=O [compound 224765] | -12 | -15 | 7 | 1
CCCCSc1cnn(-c2ccccc2)c(=O)c1SCCCC [compound 224766] | 24 | 95 | -12 | -29
O=c1c(SCc2ccccc2)c(N2CCOCC2)cnn1-c1ccccc1 [compound 224770] | 24 | -8 | 65 | -8
O=c1c(SCc2ccc(Cl)cc2Cl)c(SC2CCCCO2)cnn1-c1ccccc1 (stereo not shown) [compound 224771] | 30 | 3 | -12 | -21
CCOC(=O)COc1cnn(-c2ccccc2)c(=O)c1Cl [compound 225042] | 5 | 6 | -18 | 10
Cc1c(C(=O)c2ccccc2)nn(-c2ccccc2Cl)c(=N)c1C#N [compound 227247] | 11 | -1 | -16 | -9
Cc1ccc(-n2nc(C(=O)O)c(/C=C/c3ccc(Cl)cc3Cl)c(C#N)c2=O)cc1C [compound 227626] | 71 | 0 | -15 | -14
Cc1ccc(C(C)C)c(OCC(=O)Oc2ccc(=O)n(-c3ccccc3)n2)c1 [compound 228706] | -25 | 5 | -16 | -11
